A short description of data set [1]: Blood circulation half-life (ICP-OES of Pt). To be noted: for blood circulation half-life t1/2: mice, i.v., 2.25 mg kg-1 Pt. The class given is in vivo, mice. From the text:
Scale bar: 100 μm. The occurrence of hepatotoxicity in […]-treated mice could be presumably owing to (1) the large size of […] (~160 nm) that caused a high liver uptake and (2) the fast release of cytotoxic cisplatin from the liver-resided […] by hepatic GSH that led to a high concentration of cisplatin in the liver. One representative experiment out of two is shown. 30 PBS CDDP Pt IV NP sP- Cy Pt 20 10 0 013 619 25 Days Supplementary Figure 34. Monitoring of the body weight of mice with orthotopic HepG2/Luc liver tumors following indicated treatments. […] Values denote mean ± s.d. (n = 4 independent animals). 120 CDDP Pt IV NP s […] 40 0 0 25510 2015 Time (h) Supplementary Figure 35. Examination of the blood circulation half-lives of […], and CDDP. Plots of the relative amount of Pt (%) in the blood after i.v. injection of […], and CDDP (at a dose of 2.25 mg kg-1 Pt) into healthy mice. Data are mean ± s.d. (n = 3 independent animals). […] 0.23 h). […] The residues were then diluted with 5 mL 2% HNO3 and 5% HCl solution, and the concentrations of Pt element were determined by ICP-OES, which were further applied to calculate the contents of Pt element in the blood. The plot of the percentage of Pt element remained in the blood versus injection time to yield the pharmacokinetic time. Urine and Faeces analysis. […] Urine and faeces were collected at 2 (for 0-2 h), 4 (for 2-4 h), 8 (for 4- 8 h) and 12 h (for […]), which were diluted in methanol and centrifuged at 3,600 × g for 10 min, followed by filtering via a 0.22 μm syringe filter. The solutions were analyzed by HPLC (660 nm detection) to characterize all the mCy-containing compounds. Using the established standard curves for […] Cy-COOH, the amount of each compound in the urine and faeces could be calculated, which were further applied to determine the percentage of them in the urine and faeces. The data were summarized in Supplementary Tables 5-8. […] Urine and faeces were collected and weighed. The urine and faeces were digested with concentrated HNO3 (65~70%) and HCl (36~38%) at 90 °C for 24 h. The solution was diluted to 5 mL 2% HNO3 and 5% HCl solution, and the concentration of Pt element was measured by ICP-OES, which was further applied to calculate the percentage of Pt in corresponding urine and faeces. The data were summarized in Supplementary Tables 9 and 10. 47

The nature of data set [2]: Side toxicity in s.c. HeLa tumor-bearing mice (body weight, BUN, CRE, H&E). The note with it: for body weight during treatment: 2.25 mg kg^−1 Pt i.v. x5, 21 days; for increase of blood urea nitrogen (BUN) level / increase of creatinine (CRE) level: day 21.
Data set [3] can be described thus: LogP measurement in solutions. It is filed as physicochemical. The note with it: octanol / octanol-saturated water. From the text:
incompatibility between particles i and j. Considering the relative position and chemical components of all the beads, we always keep aAB = aAC = 28, aAS = aCS = 25, and aBS = 35. The concentration of ABC or AB is fixed at 0.03. We performed the dynamics of total 81 000 DPD beads in a cubic box (303) under the periodic boundary conditions.
In these conditions, we carry out 1.0 × 106 steps for each simulation.
Molecular simulation using the Materials Studio program. For each molecule, the most favourable crystal packing was predicted using the Polymorph module as implemented in Materials Studio. The crystal structure prediction protocol includes three parts, Packing, Geometry Optimization and Clustering. […]
Evaluation of the dephosphorylated efficacy of P-CyPt towards ALP. […] The resulting fluorescence intensities in each well in the first 30 minutes were recorded on a Spark™ 10M Multimode Microplate Reader (λex/em = 680/710 nm), and every two-minute intervals record one point. The amount of CyPt at each time point was determined by a standard curve under the same […]
LogP measurement in solutions. […] The UV-vis absorption spectroscopy or fluorescence spectrum was recorded after being diluted in MeOH/H2O (1:1) system (<1% octanol). The logP value was calculated by dividing the amount in the octanol layer to […]

Where “and” joins values, the source holds several entries; their conditions need not be identical. Identical values can stand only once. Entries after “also recorded” stand apart in the source; their conditions may differ.

In the case of `[NH2][Pt]([NH2])([Cl])[Cl]` [CDDP, cisplatin], the “Relative Pt amount in blood” value in data set [1] (Time 0 h, individual mice) is 93.8305 and 92.1406 and 114.029; in data set [1] (Time 0 h, mean of 3 mice), 100; in data set [1] (Time 0.5 h, individual mice), 57.2961 and 52.6288 and 39.5118; in data set [1] (Time 0.5 h, mean of 3 mice) it was 49.8122; in data set [1] (Time 1 h, individual mice), 22.492 and 12.6341 and 19.9651; in data set [1] (Time 1 h, mean of 3 mice), 18.3637. In addition, the “Relative Pt amount in blood” value in data set [1] (Time 2 h, individual mice) is 7.725 and 8.771 and 6.76; in data set [1] (Time 2 h, mean of 3 mice), 7.752; in data set [1] (Time 4 h, individual mice), 2.808 and 1.569 and 2.181; in data set [1] (Time 4 h, mean of 3 mice), 2.186; in data set [1] (Time 8 h, individual mice), 1.408 and 0.5955 and 1.521; in data set [1] (Time 8 h, mean of 3 mice) it was 1.175. Further, the “Relative Pt amount in blood” value in data set [1] (Time 12 h, individual mice) was 1.746 and 1.28 and 0.8611; in data set [1] (Time 12 h, mean of 3 mice), 1.2956; in data set [1] (Time 24 h, individual mice), 1.634 and 0.8852 and 0.6518; in data set [1] (Time 24 h, mean of 3 mice) it was 1.057. In addition, the “blood circulation half-life t1/2” value in data set [1] came out at 43.8 ± 2.4 min. Moreover, the “body weight during treatment” value in data set [2] was “obviously decreased”. In addition, the “increase of blood urea nitrogen (BUN) level” value in data set [2] is listed as ~ 1.6 fold. Besides, the “increase of creatinine (CRE) level” value in data set [2] is on record as ~ 1.4 fold.

Consider `CC1(C)C(/C=C/C2=C3Oc4cc(O)c(Cl)cc4C=C3CCC2)=[N+](CCCNC(=O)[C@@H](Cc2ccccc2)NC(=O)[C@@H](Cc2ccccc2)NC(=O)CCC(=O)[O][Pt]([NH2])([NH2])([OH])([Cl])[Cl])c2ccccc21` [CyPt], for which the LogP value in data set [3] is on record as 2.50 ± 0.03.

In data set [3], `CC1(C)C(/C=C/C2=C3Oc4cc(OP(=O)(O)O)c(Cl)cc4C=C3CCC2)=[N+](CCCNC(=O)[C@@H](Cc2ccccc2)NC(=O)[C@@H](Cc2ccccc2)NC(=O)CCC(=O)[O][Pt]([NH2])([NH2])([OH])([Cl])[Cl])c2ccccc21` [P-CyPt] showed a LogP value of 0.68 ± 0.03. Also, the “Relative Pt amount in blood” value in data set [1] (Time 0 h, individual mice) was 89.0517 and 110.783 and 100.165; in data set [1] (Time 0 h, mean of 3 mice), 100; in data set [1] (Time 0.5 h, individual mice), 75.3589 and 72.0355 and 86.1448; in data set [1] (Time 0.5 h, mean of 3 mice), 77.8464; in data set [1] (Time 1 h, individual mice), 48.6558 and 63.4564 and 58.4934; in data set [1] (Time 1 h, mean of 3 mice) it was 56.8685. The “Relative Pt amount in blood” value in data set [1] (Time 2 h, individual mice) is 21.7134 and 35.2733 and 24.195; in data set [1] (Time 2 h, mean of 3 mice) it was 27.0606; in data set [1] (Time 4 h, individual mice), 12.3988 and 8.818 and 6.257; in data set [1] (Time 4 h, mean of 3 mice), 9.158; in data set [1] (Time 8 h, individual mice), 7.923 and 5.247 and 4.422; in data set [1] (Time 8 h, mean of 3 mice), 5.864. The “Relative Pt amount in blood” value in data set [1] (Time 12 h, individual mice) was 4.1743 and 2.189 and 3.164; in data set [1] (Time 12 h, mean of 3 mice), 3.176; in data set [1] (Time 24 h, individual mice), 1.657 and 1.56 and 1.79; in data set [1] (Time 24 h, mean of 3 mice), 1.669. Moreover, the “blood circulation half-life t1/2” value in data set [1] worked out at 32.4 ± 3.6 min. Also, the “body weight during treatment” value in data set [2] was “similar”. Also, the “increase of blood urea nitrogen (BUN) level” value in data set [2] is “not obviously upregulated”. The “increase of creatinine (CRE) level” value in data set [2] is listed as “not obviously upregulated”. Besides, the “H&E staining of major organs (side toxicity)” value in data set [2] (day 21 after 5 doses of 2.25 mg kg^−1 Pt) is given as “all organs looked normal; also recorded: no apparent cell death”.

Source of the values: paper PMC9925730, “Controlled sequential in situ self-assembly and disassembly of a fluorogenic cisplatin prodrug for cancer theranostics” (Nature Communications, 2023).
